Experimental data from US20220202905A1, “COMPOSITION FOR PREVENTING OR TREATING NEUROTROPHIC KERATITIS WHICH CONTAINS PACAP PEPTIDE OR STABILIZED PACAP PEPTIDE” (SENJU PHARMACEUTICAL CO., LTD., priority 2019, published 2022).
Square brackets hold non-standard residues; d marks the D form. Peptide text beside a SMILES is read from it. * marks the point of attachment. Ala(1H-tetrazol-5-yl) = N[C@@H](Cc1nnn[nH]1)C(=O)O; Ms = CS(=O)(=O)*

Test: Peptide stability test, Tris buffer (pH 7.0), 60° C. storage, HPLC remaining rate
Assay type: physicochemical
Conditions: 100 μM in Tris buffer pH 7.0
Description: Peptides 1, 2 and 6 to 9 synthesized in Example 2 were weighed and dissolved in Tris buffer (pH 7.0) to prepare 1.0 mM peptide solutions. Each solution was filtered with a Chromatdisk (product of Merck Millipore, Millex-GV, 0.22 μm). The filtrate was diluted to 100 μM with Tris buffer (pH 7.0) and dispensed into a tube (Protein LoBind Tube by Eppendorf Co.). The prepared peptide solutions were incubated for 1 week or 2 weeks in a 60° C. thermostatic bath to obtain stored samples. A simultaneously prepared sample among the peptide solutions that was not stored was used as a standard sample (initial sample). The standard sample and the stored samples were stored at −30° C. until sample analysis. Each stored sample was measured under the following HPLC analysis conditions 2, and the remaining rate after correction for water for each peptide among the stored samples was calculated in the same manner as Example 3. Guard column: XSelect CSH C18 by Waters Co., 5 μm, 4.6×20 mm Guard Cartridge Detection wavelength: 220 nm Mobile phase A: 0.1% formic acid aqueous solution Mobile phase B: 0.1% acetonitrile formate solution Measuring time: 20 minutes Measuring sample injection rate: 50 μL Flow rate: 1.0 mL/min Column temperature: 40° C. Sample cooler: 25° C. Mobile phase delivery: The mixing ratio of mobile phase A and mobile phase B was varied as shown in Table 5 for linear concentration gradient control. Peptides 12 to 25, 27 and 28 synthesized in Example 2 were weighed and dissolved in Tris buffer (pH 7.0) to prepare 1.0 mM peptide solutions. Each solution was filtered with a Chromatdisk (product of Merck Millipore, Millex-GV, 0.22 μm). The filtrate was diluted to 100 μM with Tris buffer (pH 7.0) and dispensed into a tube (Protein LoBind Tube by Eppendorf Co.). The prepared peptide solutions were incubated for one week or 2 weeks in a 60° C. thermostatic bath to obtain stored samples. A simultaneously prepared sample among the peptide solutions that was not stored was used as a standard sample (initial sample). The standard sample and the stored samples were stored at −30° C. until sample analysis. The remaining rate after correction for water for each peptide among the stored samples was calculated in the same manner as Example 4, and the results are shown in Table 7. Peptides 29 to 34 synthesized in Example 2 were weighed and dissolved in Tris buffer (pH 7.0) to prepare 1.0 mM peptide solutions. Each solution was filtered with a Chromatdisk (product of Merck Millipore, Millex-GV, 0.22 μm). The filtrate was diluted to 100 μM with Tris buffer (pH 7.0) and dispensed into a tube (Protein LoBind Tube by Eppendorf Co.). The prepared peptide solutions were incubated for 2 weeks in a 60° C. thermostatic bath to obtain stored samples. A simultaneously prepared sample among the peptide solutions that was not stored was used as a standard sample (initial sample). The standard sample and the stored samples were stored at −30° C. until sample analysis. The remaining rate after correction for water for each peptide among the stored samples was calculated in the same manner as Example 4, and the results are shown in Table 7-2. Peptide 26 synthesized in Example 2 was weighed and dissolved in Tris buffer (pH 7.0) to prepare a 1.0 mM peptide solution. The solution was filtered with a Chromatdisk (product of Merck Millipore, Millex-GV, 0.22 μm). The filtrate was diluted to 100 μM with Tris buffer (pH 7.0) and dispensed into a tube (Protein LoBind Tube by Eppendorf Co.). The prepared peptide solution was incubated for one week or 2 weeks in a 60° C. thermostatic bath to obtain stored samples. A simultaneously prepared sample among the peptide solutions that was not stored was used as a standard sample (initial sample). The standard sample and the stored sample were stored at −30° C. until sample analysis. […]

Structure (SMILES) | remaining rate after correction for water, 60° C., 1 week preservation (Table 7) [%] | remaining rate after correction for water, 60° C., 2 weeks preservation (Table 7) [%] | other results
CC[C@H](C)[C@H](NC(=O)CNC(=O)[C@H](Cc1nnn[nH]1)NC(=O)[C@H](CO)NC(=O)[C@H](Cc1c[nH]cn1)NC(C)=O)C(=O)N[C@@H](Cc1ccccc1)C(=O)N[C@H](C(=O)N[C@@H](Cc1nnn[nH]1)C(=O)N[C@@H](CO)C(=O)N[C@@H](Cc1ccc(O)cc1)C(=O)N[C@@H](C)C(=O)N[C@@H](CCCNC(=N)N)C(=O)N[C@@H](Cc1ccc(O)cc1)C(=O)N[C@@H](CCCNC(=N)N)C(=O)N[C@@H](CCCCN)C(=O)N[C@@H](CCC(N)=O)C(=O)N[C@@H](CC(C)C)C(=O)N[C@@H](C)C(=O)N[C@H](C(=O)N[C@@H](CCCCN)C(=O)N[C@@H](CCCCN)C(=O)N[C@@H](Cc1ccc(O)cc1)C(=O)N[C@@H](CC(C)C)C(=O)N[C@@H](C)C(=O)N[C@@H](C)C(=O)N[C@H](C(=O)N[C@@H](CC(C)C)C(N)=O)C(C)C)C(C)C)[C@@H](C)O [Peptide 16] (Ac-HS[Ala(1H-tetrazol-5-yl)]GIFT[Ala(1H-tetrazol-5-yl)]SYARYRKQLAVKKYLAAVL-NH2) | 98.1 | 93.5 | 
CC[C@H](C)[C@H](NC(=O)CNC(=O)[C@H](Cc1nnn[nH]1)NC(=O)[C@H](CO)NC(=O)[C@H](Cc1c[nH]cn1)NC(C)=O)C(=O)N[C@@H](Cc1ccccc1)C(=O)N[C@H](C(=O)N[C@@H](Cc1nnn[nH]1)C(=O)N[C@@H](CO)C(=O)N[C@@H](Cc1ccc(O)cc1)C(=O)N[C@@H](CO)C(=O)N[C@@H](CCCNC(=N)N)C(=O)N[C@@H](Cc1ccc(O)cc1)C(=O)N[C@@H](CCCNC(=N)N)C(=O)N[C@@H](CCCNC(=N)N)C(=O)N[C@@H](CCC(N)=O)C(=O)N[C@@H](CC(C)C)C(=O)N[C@@H](C)C(=O)N[C@H](C(=O)N[C@@H](CCCNC(=N)N)C(=O)N[C@@H](CCCNC(=N)N)C(=O)N[C@@H](Cc1ccc(O)cc1)C(=O)N[C@@H](CC(C)C)C(=O)N[C@@H](C)C(=O)N[C@@H](C)C(=O)N[C@H](C(=O)N[C@@H](CC(C)C)C(=O)NCC(=O)N[C@@H](CCCNC(=N)N)C(=O)N[C@@H](CCCNC(=N)N)C(N)=O)C(C)C)C(C)C)[C@@H](C)O [Peptide 22] (Ac-HS[Ala(1H-tetrazol-5-yl)]GIFT[Ala(1H-tetrazol-5-yl)]SYSRYRRQLAVRRYLAAVLGRR-NH2) | 98.2 |  | 
CC[C@H](C)[C@H](NC(=O)CNC(=O)[C@H](Cc1nnn[nH]1)NC(=O)[C@H](C)NC(=O)[C@H](Cc1c[nH]cn1)NC(C)=O)C(=O)N[C@@H](Cc1ccccc1)C(=O)N[C@H](C(=O)N[C@@H](Cc1nnn[nH]1)C(=O)N[C@@H](CO)C(=O)N[C@@H](Cc1ccc(O)cc1)C(=O)N[C@@H](CO)C(=O)N[C@@H](CCCNC(=N)N)C(=O)N[C@@H](Cc1ccc(O)cc1)C(=O)N[C@@H](CCCNC(=N)N)C(=O)N[C@@H](CCCCN)C(=O)N[C@@H](CCC(N)=O)C(=O)N[C@@H](CC(C)C)C(=O)N[C@@H](C)C(=O)N[C@H](C(=O)N[C@@H](CCCCN)C(=O)N[C@@H](CCCCN)C(=O)N[C@@H](Cc1ccc(O)cc1)C(=O)N[C@@H](CC(C)C)C(=O)N[C@@H](C)C(=O)N[C@@H](C)C(=O)N[C@H](C(=O)N[C@@H](CC(C)C)C(N)=O)C(C)C)C(C)C)[C@@H](C)O [Peptide 14] (Ac-HA[Ala(1H-tetrazol-5-yl)]GIFT[Ala(1H-tetrazol-5-yl)]SYSRYRKQLAVKKYLAAVL-NH2) | 96.7 | 94.5 | 
CC[C@H](C)[C@H](NC(=O)CNC(=O)[C@H](Cc1nnn[nH]1)NC(=O)[C@H](CO)NC(=O)[C@H](Cc1c[nH]cn1)NS(C)(=O)=O)C(=O)N[C@@H](Cc1ccccc1)C(=O)N[C@H](C(=O)N[C@@H](Cc1nnn[nH]1)C(=O)N[C@@H](C)C(=O)N[C@@H](Cc1ccc(O)cc1)C(=O)N[C@@H](CO)C(=O)N[C@@H](CCCNC(=N)N)C(=O)N[C@@H](Cc1ccc(O)cc1)C(=O)N[C@@H](CCCNC(=N)N)C(=O)N[C@@H](CCCCN)C(=O)N[C@@H](CCC(N)=O)C(=O)N[C@@H](CC(C)C)C(=O)N[C@@H](C)C(=O)N[C@H](C(=O)N[C@@H](CCCCN)C(=O)N[C@@H](CCCCN)C(=O)N[C@@H](Cc1ccc(O)cc1)C(=O)N[C@@H](CC(C)C)C(=O)N[C@@H](C)C(=O)N[C@@H](C)C(=O)N[C@H](C(=O)N[C@@H](CC(C)C)C(N)=O)C(C)C)C(C)C)[C@@H](C)O [Peptide 29] (Ms-HS[Ala(1H-tetrazol-5-yl)]GIFT[Ala(1H-tetrazol-5-yl)]AYSRYRKQLAVKKYLAAVL-NH2) |  |  | remaining rate after correction for water, 60° C., 2 weeks preservation (Table 7-2): 91.9%
CC[C@H](C)[C@H](NC(=O)CNC(=O)[C@H](Cc1nnn[nH]1)NC(=O)[C@H](CO)NC(=O)[C@H](Cc1c[nH]cn1)NC(C)=O)C(=O)N[C@@H](Cc1ccccc1)C(=O)N[C@H](C(=O)N[C@@H](Cc1nnn[nH]1)C(=O)N[C@@H](CO)C(=O)N[C@@H](Cc1ccc(O)cc1)C(=O)N[C@@H](CO)C(=O)N[C@@H](CCCNC(=N)N)C(=O)N[C@@H](Cc1ccc(O)cc1)C(=O)N[C@@H](CCCNC(=N)N)C(=O)N[C@@H](CCCCN)C(=O)N[C@@H](CCC(N)=O)C(=O)N[C@@H](CC(C)C)C(=O)N[C@@H](C)C(=O)N[C@H](C(=O)N[C@@H](CCCCN)C(=O)N[C@@H](CCCCN)C(=O)N[C@@H](Cc1ccc(O)cc1)C(=O)N[C@@H](CC(C)C)C(=O)N[C@@H](C)C(=O)N[C@@H](C)C(=O)N[C@H](C(=O)N[C@@H](C)C(N)=O)C(C)C)C(C)C)[C@@H](C)O [Peptide 20] (Ac-HS[Ala(1H-tetrazol-5-yl)]GIFT[Ala(1H-tetrazol-5-yl)]SYSRYRKQLAVKKYLAAVA-NH2) | 93.9 | 91.8 | 
CC[C@H](C)[C@H](NC(=O)CNC(=O)[C@H](Cc1nnn[nH]1)NC(=O)[C@H](C)NC(=O)[C@H](Cc1c[nH]cn1)NC(C)=O)C(=O)N[C@@H](Cc1ccccc1)C(=O)N[C@H](C(=O)N[C@@H](Cc1nnn[nH]1)C(=O)N[C@@H](CO)C(=O)N[C@@H](Cc1ccc(O)cc1)C(=O)N[C@@H](CO)C(=O)N[C@@H](CCCNC(=N)N)C(=O)N[C@@H](Cc1ccc(O)cc1)C(=O)N[C@@H](CCCNC(=N)N)C(=O)N[C@@H](CCCCN)C(=O)N[C@@H](CCC(N)=O)C(=O)N[C@@H](C)C(=O)N[C@@H](C)C(=O)N[C@H](C(=O)N[C@@H](CCCCN)C(=O)N[C@@H](CCCCN)C(=O)N[C@@H](Cc1ccc(O)cc1)C(=O)N[C@@H](CC(C)C)C(=O)N[C@@H](C)C(=O)N[C@@H](C)C(=O)N[C@H](C(=O)N[C@@H](CC(C)C)C(N)=O)C(C)C)C(C)C)[C@@H](C)O [Peptide 25] (Ac-HA[Ala(1H-tetrazol-5-yl)]GIFT[Ala(1H-tetrazol-5-yl)]SYSRYRKQAAVKKYLAAVL-NH2) | 95.8 | 91.2 | 
CC[C@H](C)[C@H](NC(=O)CNC(=O)[C@H](Cc1nnn[nH]1)NC(=O)[C@H](CO)NC(=O)[C@H](Cc1c[nH]cn1)NC(C)=O)C(=O)N[C@@H](Cc1ccccc1)C(=O)N[C@H](C(=O)N[C@@H](Cc1nnn[nH]1)C(=O)N[C@@H](C)C(=O)N[C@@H](Cc1ccc(O)cc1)C(=O)N[C@@H](CO)C(=O)N[C@@H](CCCNC(=N)N)C(=O)N[C@@H](Cc1ccc(O)cc1)C(=O)N[C@@H](CCCNC(=N)N)C(=O)N[C@@H](CCCCN)C(=O)N[C@@H](C)C(=O)N[C@@H](CC(C)C)C(=O)N[C@@H](C)C(=O)N[C@H](C(=O)N[C@@H](CCCCN)C(=O)N[C@@H](CCCCN)C(=O)N[C@@H](Cc1ccc(O)cc1)C(=O)N[C@@H](CC(C)C)C(=O)N[C@@H](C)C(=O)N[C@@H](C)C(=O)N[C@H](C(=O)N[C@@H](CC(C)C)C(N)=O)C(C)C)C(C)C)[C@@H](C)O [Peptide 26] (Ac-HS[Ala(1H-tetrazol-5-yl)]GIFT[Ala(1H-tetrazol-5-yl)]AYSRYRKALAVKKYLAAVL-NH2) |  |  | remaining rate after correction for water, 60° C., 1 week preservation (Table 10, HPLC conditions 3): 98.0%; remaining rate after correction for water, 60° C., 2 weeks preservation (Table 10, HPLC conditions 3): 94.8%
